{
  "source": "patent US20170316147A1",
  "about": "“METHODS AND SYSTEMS FOR IDENTIFYING LIGAND-PROTEIN BINDING SITES” (King Abdullah University of Science and Technology, priority 2014, published 2017)",
  "key": {"[1]": {"target": "T1, Bcl-2 (Homo sapiens, UniProt P10415, A37T/A38E/A42E/A43T/DEL46-86/G36R/G41E/P39A/P44E/P88R/P90T/S87E/V35N/V89E)", "T1 construct": "made in house", "test": "Differential static light scattering (aggregation temperature) of Bcl-2", "type": "binding", "procedure": "We also tested direct binding of CoA to recombinant Bcl-2 (see supporting information file PredTargets). Bcl-2, the founding member of the Bcl-2 family of regulator proteins that regulate cell death, is an important anti-apoptotic protein and is classified as an oncogene. Using differential static light scattering (DSLS) we observed that the aggregation temperature Tagg for 0.5 mg/ml apo-Bcl-2 was ˜57° C. […] The predicted CoA binding pocket by iDTP was adjacent to the Bax-BH binding site and without significant overlap (FIG. 5(b)). The presence of CoA was therefore not expected to displace bound Bax-BH3. […] Thus, our in vitro binding experiments strongly supported our computational binding predictions.\nDSLS measured by the Stargazer system (Harbinger Biotechnology and Engineering Corporation, Markham, Canada) was used to assess the thermal stability of Bcl-2 in the absence or presence of CoA and control ligands. DSLS measures the specific aggregation temperature, Tagg at which a protein aggregates as a result of heat denaturing. Thus, DSLS provides the thermal stability of proteins, which is expected to vary in presence of ligands. Bcl-2 at 0.5 mg/mL was overlaid with mineral oil in a clear bottom 384-well black plate (Corning) were heated from 20 to 85° C. at 1° C./min and the light scattering was detected by a CCD camera every 0.5° C. in the absence or presence of varying concentrations of CoA, yielding the difference in aggregation temperature at a particular CoA concentration from apo Bc1-2 ΔTagg. Data were normalized and Kd values were calculated by plotting ΔTagg against the CoA concentration. Resulting data were fitted using a binding saturation single site model (GraphPad).\nDifferential static light scattering (DSLS). DSLS measured by the Stargazer system (Harbinger Biotechnology and Engineering Corporation, Markham, Canada) was used to assess the thermal stability of Bcl-2 in the presence or absence of CoA and to control ligands. DSLS measures the specific aggregation temperature, Tagg, at which a protein aggregates as a result of heat denaturing. Thus, DSLS provides proteins with thermal stability, which is expected to vary in the presence of ligands. Bcl-2 at 0.5 mg/mL was overlaid with mineral oil in a clear bottom 384-well black plate (Corning), and heated from 20 to 85° C. at 1° C./min; light scattering was detected by a CCD camera every 0.5° C. in the presence or absence of varying concentrations of CoA, yielding the difference in aggregation temperature at a particular CoA concentration from apo Bcl-2 ΔTagg. Data were normalized and Kd values were calculated by plotting ΔTagg against the CoA concentration. Resulting data were fitted using a binding-saturation single-site model (GraphPad)."}, "[2]": {"target": "T1, Bcl-2", "test": "Intrinsic tryptophan fluorescence quenching binding assay", "procedure": "Bcl-2 tryptophans were excited at 280 nM and the emission intensity was measured at 320 nM. 10 μM Bcl-2 was incubated with various dilutions of CoA for 10 min before measurement. The fluorescence emitted was monitored using a PheraStar fluorescence plate reader in 96-well plates. Change in tryptophan fluorescence occurs due to conformational change in the protein, when it is bound to the ligand and the difference in the fluorescence intensity was recorded and analyzed. Data were normalized, and Kd values were calculated by fitting to a Binding-Saturation single site model with GraphPad.\nIntrinsic tryptophan fluorescence quenching binding assay. Bcl-2 tryptophans were excited at 280 nM and the emission intensity was measured at 320 nM. 10 μM Bcl-2 was incubated with various dilutions of CoA for 10 min before measurement. Emitted fluorescence was monitored using a PheraStar fluorescence plate reader in 96-well plates. Change in tryptophan fluorescence occurs due to conformational changes in the protein when it is bound to the ligand; differences in the fluorescence intensity were recorded and analyzed. Data were normalized and Kd values were calculated by fitting to a Binding-Saturation single-site model with GraphPad."}, "[3]": {"target": "T1, Bcl-2", "test": "Fluorescence anisotropy competition: CoA against Bax-BH3 bound to Bcl-2", "type": "binding", "conditions": "20 nM Bax-BH3, 400 nM Bcl-2, CoA up to 4.7 mM; listed as CoA", "from_the_text": "Fluorescence anisotropy measurements."}, "[4]": {"target": "T2, hPPARγ-LBD (Homo sapiens, UniProt P37231)", "T2 sequence (P37231 196-477 isoform P37231-2)": "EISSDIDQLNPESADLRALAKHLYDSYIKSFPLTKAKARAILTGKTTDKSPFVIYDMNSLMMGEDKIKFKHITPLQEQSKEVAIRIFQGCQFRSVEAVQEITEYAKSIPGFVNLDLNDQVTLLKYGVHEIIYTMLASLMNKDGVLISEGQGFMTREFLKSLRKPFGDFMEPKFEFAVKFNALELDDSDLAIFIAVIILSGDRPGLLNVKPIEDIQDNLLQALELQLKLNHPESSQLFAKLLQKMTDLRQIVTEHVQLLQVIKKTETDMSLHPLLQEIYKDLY", "test": "Differential scanning fluorimetry (thermal shift) on hPPARγ-LBD", "type": "binding", "design": "human PPARγ (amino acids Glu196-Tyr477); made in house", "conditions": "for Tm of hPPARγ-LBD: 5 μM hPPARg", "from_the_text": "PPARγ is a nuclear hormone receptor regulating numerous biological functions including adipogenesis and cell differentiation. Its dysregulation is involved in the onset of diabetes and obesity. The interaction of the ligand binding domain (LBD) of human PPARγ (hPPARγ-LBD) with CoA is one of our most promising predictions, because this interaction achieved a high iDTP score and statistically significant co-citation index (SI Table 3). The pocket predicted by iDTP to bind CoA overlaps with the known ligand binding site of this receptor.\n(§1) This method measures the protein unfolding based on fluorescence detection of the denatured form of the protein [59]. […] The plates were sealed with an optical sealing tape (Bio-Rad) and heated in an Mx3005P Q-PCR system (Stratagene) from 25 to 95° C. at 1° C. intervals. Fluorescence changes in the wells were monitored with a photomultiplier tube. The wavelengths for excitation and emission were 545 nm and 568 nm, respectively. The melting temperatures, Tm, were obtained by fitting the fluorescence data with a Boltzmann model using the GraphPad Prism software.\nas §1, with “Differential scanning fluorimetry (DSF or Thermofluor). This” for “This”, “measures” for “measures the”, “(Pantoliano et al., 2001).” for “[59].”, “25° C.” for “25”, “using” for “using the”"}, "[5]": {"target": "T2, hPPARγ-LBD", "test": "Fluorescence anisotropy titrations of fluorescein-labelled coactivator/corepressor peptides with hPPARγ-LBD in presence of ligand", "text": "Next, we used fluorescence anisotropy (FA) to characterize the interaction between hPPARγ-LBD and its natural partner proteins upon CoA binding. We measured the dissociation constant (Kd) between hPPARγ-LBD and fluorescein-labeled peptides derived from a coactivator protein (PGC1) and two corepressor proteins (NCoR and SMRT). […] If an increasing molar excess of the ligand has an increasing influence on the Kd of the fluorescently labeled coactivator/corepressor, then we can infer ligand binding, because the ligand disturbs binding to coactivators or corepressors.\nBinding affinities of the fluorescent peptides for hPPARγ LBD were measured in the presence or absence of ligands using a Safire2 microplate reader (TECAN). For the fluorescence-labeled peptides, excitation wavelength was set at 470 nm and emission measured at 530 nm. The reported data are the average of independent experiments and error bars correspond to standard deviations. The buffer solution for assays was 20 mM Tris-HCl pH 7.5, 150 mM NaCl, 1 mM EDTA, 5 mM dithiothreitol, and 10% (v/v) glycerol. The measurements were initiated at 40 μM of the protein, and then the sample was diluted successively by a factor of 2 with the buffer until the lowest protein concentration reached 9.7 nM. Fluorescent peptides were added to the protein samples at 4 nM, allowing establishment of the titration curve. Ligands, when added, were at final concentration of 80 μM.\nBinding affinities of the fluorescent peptides for hPPARγ LBD were measured in the presence or absence of ligands using a Safire2 microplate reader (TECAN). Fluorescent-labeled peptides were measured using an excitation wavelength of 470 nm; emission was measured at 530 nm. Data are the average of independent experiments and error bars correspond to standard deviations. The buffer solution for assays consisted of 20 mM Tris-HCl pH 7.5, 150 mM NaCl, 1 mM EDTA, 5 mM dithiothreitol, and 10% (v/v) glycerol. Measurements began at 40 μM of the protein, followed by successive two-fold sample dilutions with buffer, until reaching the lowest protein concentration (9.7 nM). Fluorescent peptides were added to the protein samples at 4 nM to allow the establishment of the titration curve. Added ligands were at a final concentration of 80 μM."}, "[6]": {"target": "T3, chimeric human Bcl-2 (with the internal loop 51-91 removed and residues 35-50 replaced by residues 33-48 of … (human; mouse, UniProt P10415 1-34; Q64373 33-48; P10415 92-207)", "T3 construct": "also called recombinant Bcl-2; Bc1-2", "T3 sequence (P10415 other isoform, or with tags, fused parts or gaps mutant limits assumed)": "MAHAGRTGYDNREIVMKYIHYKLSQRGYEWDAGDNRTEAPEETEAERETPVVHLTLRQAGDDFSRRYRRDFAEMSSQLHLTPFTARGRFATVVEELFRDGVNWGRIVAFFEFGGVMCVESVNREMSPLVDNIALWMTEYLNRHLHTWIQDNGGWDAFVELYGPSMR", "test": "differential static light scattering (DSLS), aggregation temperature of 0.5 mg/ml Bcl-2"}, "[7]": {"target": "T3, chimeric human Bcl-2 (with the internal …)", "test": "DSLS, aggregation temperature of 0.5 mg/mL Bcl-2 with 1 uM peptide (apo Bcl-2 56.85 ± 0.14); negative control"}, "[8]": {"target": "T3, chimeric human Bcl-2 (with the internal …)", "test": "fluorescence anisotropy (FA), same experiment as FIG. 5(a), rounded"}, "[9]": {"target": "T3, chimeric human Bcl-2 (with the internal …)", "test": "fluorescence anisotropy of labeled Bax-BH3 against Bcl-2 concentration, single binding site model"}, "[10]": {"target": "T3, chimeric human Bcl-2 (with the internal …)", "test": "DSLS, aggregation temperature of 0.5 mg/mL Bcl-2 with 400 nM peptide (apo Bcl-2 56.85 ± 0.14)"}},
  "note": "“Also recorded” adds a separate entry of the source. No end group written: not given here.",
  "data": [
    {"molecule": "CC(C)(COP(=O)(O)OP(=O)(O)OC[C@H]1O[C@@H](n2cnc3c(N)ncnc32)[C@H](O)[C@@H]1OP(=O)(O)O)[C@@H](O)C(=O)NCCC(=O)NCCS", "note": "[Coenzyme A]", "values": [
      {"measurement": "Tagg of Bcl-2", "setting": "[1]; 0.5 mg/mL Bcl-2, 0.1 mM ligand", "value": "57.65 ± 0.19", "unit": "°C"},
      {"measurement": "Tagg of Bcl-2", "setting": "[1]; 0.5 mg/mL Bcl-2, 0.25 mM ligand", "value": "59.72 ± 1.011", "unit": "°C"},
      {"measurement": "Tagg of Bcl-2", "setting": "[1]; 0.5 mg/mL Bcl-2, 0.5 mM ligand", "value": "59.83 ± 0.21", "unit": "°C"},
      {"measurement": "Tagg of Bcl-2", "setting": "[1]; 0.5 mg/mL Bcl-2, 0.75 mM ligand", "value": "60.49 ± 0.46", "unit": "°C"},
      {"measurement": "Tagg of Bcl-2", "setting": "[1]; 0.5 mg/mL Bcl-2, 1 mM ligand", "value": "60.88 ± 0.46", "unit": "°C"},
      {"measurement": "Tagg of Bcl-2", "setting": "[1]; 0.5 mg/mL Bcl-2, 1.5 mM ligand", "value": "61.12 ± 0.58", "unit": "°C"},
      {"measurement": "Tagg of Bcl-2", "setting": "[1]; 0.5 mg/mL Bcl-2, 2 mM ligand", "value": "61.25 ± 0.66", "unit": "°C"},
      {"measurement": "Tagg of Bcl-2", "setting": "[1]; 0.5 mg/mL Bcl-2, 3 mM ligand", "value": "61.78 ± 0.45", "unit": "°C"},
      {"measurement": "Tagg of Bcl-2 reached with increasing ligand concentrations", "setting": "[1]; 0.5 mg/ml Bcl-2, increasing concentrations of CoA", "value": "up to 62 °C"},
      {"measurement": "Kd", "setting": "[1]; DSLS thermal stability of Bcl-2, read-out: Kd from ΔTagg versus concentration, single binding site model", "value": "320 ± 130", "unit": "µM"},
      {"measurement": "Kd", "setting": "[2]; 10 μM Bcl-2, increasing CoA concentrations, read-out: Kd from tryptophan fluorescence quenching, single binding site model", "value": 380, "unit": "µM"},
      {"measurement": "Kd", "setting": "[2]; summary value in discussion, read-out: Kd for recombinant Bcl-2 in vitro", "value": "~350", "unit": "µM"},
      {"measurement": "displacement of Bax-BH3 from Bcl-2 (fluorescence anisotropy/polarization)", "setting": "[3]", "value": "did not reduce the FA; also recorded: without displacing Bax-BH3; also recorded: unable to displace"},
      {"measurement": "Tm of hPPARγ-LBD", "setting": "[4]; 35 μM ligand", "value": 46.6, "unit": "°C"},
      {"measurement": "Tm of hPPARγ-LBD", "setting": "[4]; 70 μM ligand", "value": 46.5, "unit": "°C"},
      {"measurement": "Tm of hPPARγ-LBD", "setting": "[4]; 140 μM ligand", "value": 45.5, "unit": "°C"},
      {"measurement": "Tm of hPPARγ-LBD", "setting": "[4]; 280 μM ligand", "value": 41.7, "unit": "°C"},
      {"measurement": "Tm of hPPARγ-LBD", "setting": "[4]; 1400 μM ligand", "value": 27.5, "unit": "°C"},
      {"measurement": "lowering of hPPARγ-LBD Tm compared to the apo-protein", "setting": "[4]; seven molar excess of ligand", "value": 0.8, "unit": "°C"},
      {"measurement": "Kd", "setting": "[5]", "value": "< 500", "unit": "µM"},
      {"measurement": "nature of the ligand-hPPARγ-LBD interaction", "setting": "[5]; inferred from effect on coactivator and corepressor binding", "value": "neutral antagonist"},
      {"measurement": "effect on affinity of hPPARγ-LBD for corepressors NCoR and SMRT", "setting": "[5]; two to ten molar excess", "value": "lowered the affinity"},
      {"measurement": "effect on affinity of hPPARγ-LBD for the coactivator PGC1", "setting": "[5]; two to ten molar excess (CD5577: two molar excess)", "value": "lowered the affinity"}
    ]},
    {"molecule": "LSDAMETSSLRDALE [scrambled LD4 peptide, scrambled version of the Bcl-2 ligand LD4, negative control, reference compound]", "values": [
      {"measurement": "effect on Tagg of Bcl-2", "setting": "[1]; 0.5 mg/ml Bcl-2, 1 μM peptide (negative control)", "value": "did not alter Tagg"}
    ]},
    {"molecule": "QDASTKKLSECLRRIGDELDSNMELQRMIAD [Bax-BH3 peptide, reference compound]", "values": [
      {"measurement": "Tagg of Bcl-2", "setting": "[1]; 0.5 mg/mL Bcl-2, 400 nM ligand", "value": "67.30 ± 1.02", "unit": "°C"},
      {"measurement": "Tagg of Bcl-2", "setting": "[1]; 0.5 mg/mL Bcl-2, 400 nM ligand, listed as Bax-BH3", "value": 67, "unit": "°C"}
    ]},
    {"molecule": "LSDAMETSSLRDALE (Negative control peptide, bought from Genscript; also called Scramble LD4 peptide)", "note": "[scrambled LD4 peptide (LSDAMETSSLRDALE, a scrambled version of the Bcl-2 ligand LD4)]", "values": [
      {"measurement": "binding result", "setting": "[6]", "value": "no binding (tested: 1 µM)"},
      {"measurement": "Tagg (° C.)", "setting": "[7]", "value": 57, "unit": "° C."}
    ]},
    {"molecule": "QDASTKKLSECLRRIGDELDSNMELQRMIAD (also: fluorescein label, position not given here, Bought from Genscript; also called Bax-BH3 peptide)", "note": "[fluorescence-labeled peptide QDASTKKLSECLRRIGDELDSNMELQRMIAD corresponding to Bax-BH3]", "values": [
      {"measurement": "Kd", "setting": "[8]", "value": 0.128, "unit": "µM"},
      {"measurement": "Kd", "setting": "[9]", "value": "~0.128", "unit": "µM"},
      {"measurement": "Tagg (° C.)", "setting": "[10]", "value": 67.3, "unit": "° C."}
    ]}
  ]
}
